Data: patent US8053418B2, “Anti-penicillin resistant pneumococci agent and novel 16-membered macrolide derivative” (Microbial Chemistry Research Foundation, priority 2005, dated 2011)
Converted amounts (≈) assume the structure as drawn. Where two headings read alike, the source gives them in different places.

Key:
Format in all cases: cell-based
[1] = system: Streptococcus pneumoniae IMC B-1229 (PSSP); test: Antimicrobial activity test (MIC), clinical isolate IMC B-1229; conditions: PSSP clinical isolate IMC B-1229
Method: (§1) Using Streptococcus pneumoniae that include clinical isolates of PRSP, the antimicrobial activity of each of the prepared anti-PRSP agents was measured in accordance with the “determination method of minimum inhibitory concentration of drug against bacteria” of Japanese Society of Chemotherapy (for re-revised version, see Chemotherapy 29; 76, 1981).
(§2) 11 test strains of Streptococcus pneumoniae including IMC B-0919 are all clinical isolates, of which 2 strains, IMC B-0921 and IMC B-1229, are classified into penicillin susceptible Streptococcus pneumoniae (PSSP) and the remaining 9 strains are classified into penicillin-resistant Streptococcus pneumoniae (PRSP) (according to NCCLS standards).

[2] = system: Streptococcus pneumoniae IMC B-1235 (PRSP); test: Antimicrobial activity test (MIC), clinical isolate IMC B-1235; conditions: PRSP clinical isolate IMC B-1235
Method: as §1, §2

[3] = system: Streptococcus pneumoniae IMC B-1236 (PRSP); test: Antimicrobial activity test (MIC), clinical isolate IMC B-1236; conditions: PRSP clinical isolate IMC B-1236
Method: as §1, §2

[4] = system: Streptococcus pneumoniae IMC B-0920 (PRSP); test: Antimicrobial activity test (MIC), clinical isolate IMC B-0920; conditions: PRSP clinical isolate IMC B-0920
Method: as §1, §2

[5] = system: Streptococcus pneumoniae IMC B-0921 (PSSP); test: Antimicrobial activity test (MIC), clinical isolate IMC B-0921; conditions: PSSP clinical isolate IMC B-0921
Method: as §1, §2

[6] = system: penicillin-resistant Streptococcus pneumoniae (PRSP); test: Anti-PRSP activity, overall statements on the clinical isolates; conditions: statement in words
Method: as §1, §2
For the compounds of the present invention, MKT-1011, MKT-2003, MKT-3002 and MKT-3003, the antimicrobial activity was measured in the same way as in Experimental Example 1.

[7] = system: Streptococcus pneumoniae IMC B-1232 (PRSP); test: Antimicrobial activity test (MIC), clinical isolate IMC B-1232; conditions: PRSP clinical isolate IMC B-1232
Method: as §1, §2

[8] = system: Streptococcus pneumoniae IMC B-0919 (PRSP); test: Antimicrobial activity test (MIC), clinical isolate IMC B-0919; conditions: PRSP clinical isolate IMC B-0919
Method: as §1, §2

[9] = system: Streptococcus pneumoniae IMC B-0922 (PRSP); test: Antimicrobial activity test (MIC), clinical isolate IMC B-0922; conditions: PRSP clinical isolate IMC B-0922
Method: as §1, §2

[10] = system: Streptococcus pneumoniae IMC B-1234 (PRSP); test: Antimicrobial activity test (MIC), clinical isolate IMC B-1234; conditions: PRSP clinical isolate IMC B-1234
Method: as §1, §2

[11] = system: Streptococcus pneumoniae IMC B-1233 (PRSP); test: Antimicrobial activity test (MIC), clinical isolate IMC B-1233; conditions: PRSP clinical isolate IMC B-1233
Method: as §1, §2

[12] = system: Streptococcus pneumoniae IMC B-1231 (PRSP); test: Antimicrobial activity test (MIC), clinical isolate IMC B-1231; conditions: PRSP clinical isolate IMC B-1231
Method: as §1, §2

[13] = Streptococcus pneumoniae, read-out: MIC

SMILES: CCC1OC(=O)CCC(C)C(OC2OC(C)CC(N(C)C)C2O)C(CC=O)CC(C)C(=O)C=CC(C)=CC1CNC(=O)c1ccccc1 (stereo not drawn) [MKT-3202]
- MIC [1]: <0.025 µg/mL
- MIC [2]: 0.1 µg/mL (≈ 0.15 µM)
- MIC [3]: 6.25 µg/mL (≈ 9.34 µM)
- MIC [4]: 0.2 µg/mL (≈ 0.299 µM)
- MIC [5]: <0.025 µg/mL
- anti-PRSP activity [6]: high anti-PRSP activity
- MIC [7]: 0.1 µg/mL (≈ 0.15 µM)
- MIC [8]: 0.2 µg/mL (≈ 0.299 µM)
- MIC [9]: <0.025 µg/mL
- MIC [10]: <0.025 µg/mL
- MIC [11]: <0.025 µg/mL
- MIC [12]: 0.05 µg/mL (≈ 0.0748 µM)

SMILES: C=CCOCC1C=C(C)C=CC(=O)C(C)CC(CC=O)C(OC2OC(C)CC(N(C)C)C2O)C(C)CCC(=O)OC1CC (stereo not drawn) [MKT-3701]
- MIC [1]: 0.05 µg/mL (≈ 0.0825 µM)
- MIC [2]: 12.5 µg/mL (≈ 20.6 µM)
- MIC [3]: 12.5 µg/mL (≈ 20.6 µM)
- MIC [4]: 0.2 µg/mL (≈ 0.33 µM)
- MIC [5]: 0.05 µg/mL (≈ 0.0825 µM)
- anti-PRSP activity [6]: high anti-PRSP activity
- MIC [7]: 0.05 µg/mL (≈ 0.0825 µM)
- MIC [8]: 0.1 µg/mL (≈ 0.165 µM)
- MIC [9]: 0.1 µg/mL (≈ 0.165 µM)
- MIC [10]: 0.1 µg/mL (≈ 0.165 µM)
- MIC [11]: 0.05 µg/mL (≈ 0.0825 µM)
- MIC [12]: 3.13 µg/mL (≈ 5.17 µM)

SMILES: CC[C@H]1OC(=O)CC[C@H](C)[C@@H](OC2OC(C)CC(N(C)C)C2O)[C@@H](CC=O)C[C@@H](C)C(=O)/C=C/C(C)=C/[C@@H]1COCOCc1ccccc1 (stereo partly drawn) [MKT-3703]
- MIC [1, 13]: 0.1 µg/mL (≈ 0.146 µM)
- MIC [2, 13]: 6.25 µg/mL (≈ 9.11 µM)
- MIC [3, 13]: 12.5 µg/mL (≈ 18.2 µM)
- MIC [4, 13]: 0.025 µg/mL (≈ 0.0364 µM)
- MIC [5, 13]: < 0.025 µg/mL
- anti-PRSP activity [6]: high anti-PRSP activity
- MIC [7, 13]: < 0.025 µg/mL
- MIC [8, 13]: < 0.025 µg/mL
- MIC [9, 13]: < 0.025 µg/mL
- MIC [10, 13]: < 0.025 µg/mL
- MIC [11, 13]: < 0.025 µg/mL
- MIC [12, 13]: 6.25 µg/mL (≈ 9.11 µM)

SMILES: CCC1OC(=O)CCC(C)C(OC2OC(C)CC(N(C)C)C2O)C(CC=O)CC(C)C(=O)C=CC(C)=CC1CSc1ncccn1 (stereo not drawn) [MKT-3802]
- MIC [1]: 0.05 µg/mL (≈ 0.0758 µM)
- MIC [2]: 12.5 µg/mL (≈ 18.9 µM)
- MIC [3]: 12.5 µg/mL (≈ 18.9 µM)
- MIC [4]: <0.025 µg/mL
- MIC [5]: 0.05 µg/mL (≈ 0.0758 µM)
- anti-PRSP activity [6]: high anti-PRSP activity
- MIC [7]: <0.025 µg/mL
- MIC [8]: <0.025 µg/mL
- MIC [9]: 0.05 µg/mL (≈ 0.0758 µM)
- MIC [10]: 0.025 µg/mL (≈ 0.0379 µM)
- MIC [11]: <0.025 µg/mL
- MIC [12]: 0.39 µg/mL (≈ 0.591 µM)
